According to paper PMC5458078, “Global mapping of CARM1 substrates defines enzyme specificity and substrate recognition” (Nature Communications, 2017):

Columns and labels:
MCF7 cells = assay: Quantitative nanoLC-MS/MS (TMT) of ADMA-containing peptides, CARM1 KO vs parental; format: cell-based, human; parameters: Fold change KO/WT: scale not given here
MCF7 CARM1 KO cells = assay: Quantitative MS of ADMA-containing peptides in MCF7 CARM1 KO cells expressing CARM1 28-608 or CARM1 140-608, and in CARM1 KO; format: cell-based, human
[1] = MCF7, CARM1 KO (KO1-KO3) vs wild type (WT1-WT3)
[2] = CARM1 140-608 versus WT, mean of three replicates (log2)
[3] = KO versus WT, mean of three replicates (log2)
[4] = MCF7 CARM1 knockout vs wild type, 3 biological replicates each, values are on log2 scale
[5] = difference of log2 means, CARM1 140-608 vs WT
[6] = difference of log2 means, KO vs WT
[7] = ADMA-containing peptide, CARM1 knockout (KO) vs wild type (WT) MCF7 cells, 6-plex TMT experiment #1, three biological replicates each, sheet "MCF7"
[8] = CARM1 KO vs wild type MCF7 cells, 3 biological replicates each
[9] = CARM1 140-608 versus WT, difference of mean log2 values
[10] = CARM1 KO versus WT, difference of mean log2 values
[11] = ADMA-containing peptide, MCF7, CARM1 knockout (KO1-3) vs wild type (WT1-3), TMT 6-plex experiment #1
[12] = log2 scale ratio, mean of n = 3
[13] = MCF7, CARM1 KO vs WT, three biological replicates each
[14] = CARM1 140-608 vs WT, mean of 3 replicates, log2
[15] = KO vs WT, mean of 3 replicates, log2
[16] = mean, CARM1 140-608 versus WT (log2 scale)
[17] = mean, CARM1 KO versus WT (log2 scale)
[18] = MCF7, CARM1 knockout vs wild type, n = 3 each
[19] = CARM1 140-608 vs WT, mean of 3 replicates (log2 scale)
[20] = KO vs WT, mean of 3 replicates (log2 scale)
[21] = ratio on log2 scale, mean of 3 replicates

Substance: DQPGTSAVPNLASVGTrLPPPLPQNLLYTVSErQPMYSR
- Fold change KO/WT (MCF7 cells; [1]): -3.343
- CARM1 140-608/WT (MCF7 CARM1 KO cells; [2]): -2.641
- KO/WT (MCF7 CARM1 KO cells; [3]): -3.343

Substance: SPVAPPLGPrYAVFPK
- Fold change KO/WT (MCF7 cells; [4]): -2.706
- CARM1 140-608/WT (MCF7 CARM1 KO cells; [5]): 2.312
- KO/WT (MCF7 CARM1 KO cells; [6]): -0.9897

Substance: APESPPSADPALVAGPAEEAECPPPRQPQPAQNVLAAPrLR
- Fold change KO/WT (MCF7 cells; [7]): -1.431
- CARM1 140-608/WT (MCF7 CARM1 KO cells; [2]): -0.5501
- KO/WT (MCF7 CARM1 KO cells; [3]): -1.431

Substance: SGSNWGrGSNMNSGPPR
- Fold change KO/WT (MCF7 cells; [8]): 0.3426
- CARM1 140-608/WT (MCF7 CARM1 KO cells; [9]): 0.2533
- KO/WT (MCF7 CARM1 KO cells; [10]): 0.9633

Substance: VTrYPILGIPQAHR
- Fold change KO/WT (MCF7 cells; [7]): -1.789
- CARM1 140-608/WT (MCF7 CARM1 KO cells; [5]): -2.491
- KO/WT (MCF7 CARM1 KO cells; [6]): -2.966

Substance: MAPALSGANLTSPrVPLSAYER
- Fold change KO/WT (MCF7 cells; [11]): -4.135
- CARM1 140-608/WT (MCF7 CARM1 KO cells; [12]): -3.667
- KO/WT (MCF7 CARM1 KO cells; [12]): -5.009

Substance: QrGVSHAMGGrGGINrGNIN
- Fold change KO/WT (MCF7 cells; [11]): 0.1671
- CARM1 140-608/WT (MCF7 CARM1 KO cells; [9]): -0.01925
- KO/WT (MCF7 CARM1 KO cells; [10]): 0.2719

Substance: SVGQGYSVGQSMrLGLGGNAPVSIPQQSQSVK
- Fold change KO/WT (MCF7 cells; [13]): -2.576
- CARM1 140-608/WT (MCF7 CARM1 KO cells; [14]): -2.098
- KO/WT (MCF7 CARM1 KO cells; [15]): -2.576

Substance: INPLPGGrNFSGTASTSLLGPPPGLLTPPVATELSQNAR
- Fold change KO/WT (MCF7 cells; [13]): -2.627
- CARM1 140-608/WT (MCF7 CARM1 KO cells; [14]): -1.005
- KO/WT (MCF7 CARM1 KO cells; [15]): -2.627

Substance: LYrYSPQSFLPDSTIQK
- Fold change KO/WT (MCF7 cells; [4]): -2.857
- CARM1 140-608/WT (MCF7 CARM1 KO cells; [16]): -2.17
- KO/WT (MCF7 CARM1 KO cells; [17]): -2.857

Substance: TVPMGGVrLVTPVTVSAVKPAVTTLVVK
- Fold change KO/WT (MCF7 cells; [18]): -2.889
- CARM1 140-608/WT (MCF7 CARM1 KO cells; [16]): -0.6483
- KO/WT (MCF7 CARM1 KO cells; [17]): -2.889

Substance: FrPNPLNNPR
- Fold change KO/WT (MCF7 cells; [11]): 0.07251
- CARM1 140-608/WT (MCF7 CARM1 KO cells; [12]): 0.04278
- KO/WT (MCF7 CARM1 KO cells; [12]): 0.4697

Substance: DVEAATGQDLGSSrYSGK
- Fold change KO/WT (MCF7 cells; [8]): 0.2995
- CARM1 140-608/WT (MCF7 CARM1 KO cells; [9]): -0.09015
- KO/WT (MCF7 CARM1 KO cells; [10]): -0.4514

Substance: LQLGTPPPLLAArLVPPR
- Fold change KO/WT (MCF7 cells; [1]): -2.7388
- CARM1 140-608/WT (MCF7 CARM1 KO cells; [2]): -3.287
- KO/WT (MCF7 CARM1 KO cells; [3]): -5.072

Substance: MGTPVPrPPQDMGQIGVrTPLGPrVAAPVGPVGPTPTVLPMGAPVPrPR
- Fold change KO/WT (MCF7 cells; [1]): -2.587
- CARM1 140-608/WT (MCF7 CARM1 KO cells; [19]): -1.761
- KO/WT (MCF7 CARM1 KO cells; [20]): -2.783

Substance: QLPNAGPGAPPALGFSrFPAGArYAGAGGLER
- Fold change KO/WT (MCF7 cells; [13]): -4.1849
- CARM1 140-608/WT (MCF7 CARM1 KO cells; [14]): -2.691
- KO/WT (MCF7 CARM1 KO cells; [15]): -4.1849

Substance: ErLALAAGPALrPDMSYAER
- Fold change KO/WT (MCF7 cells; [13]): -2.368
- CARM1 140-608/WT (MCF7 CARM1 KO cells; [14]): -1.6609
- KO/WT (MCF7 CARM1 KO cells; [15]): -2.368

Substance: ErLALAGPQLrPEMSYPDR
- Fold change KO/WT (MCF7 cells; [1]): -2.989
- CARM1 140-608/WT (MCF7 CARM1 KO cells; [19]): -2.2623
- KO/WT (MCF7 CARM1 KO cells; [20]): -2.989

Substance: SGIILrSPrPDFrPrEPFLSrDPFHSLK
- Fold change KO/WT (MCF7 cells; [1]): -2.553
- CARM1 140-608/WT (MCF7 CARM1 KO cells; [19]): -0.96
- KO/WT (MCF7 CARM1 KO cells; [20]): -2.553

Substance: LQEVSLrQGMr
- Fold change KO/WT (MCF7 cells; [13]): -0.8557
- CARM1 140-608/WT (MCF7 CARM1 KO cells; [21]): 0.07113
- KO/WT (MCF7 CARM1 KO cells; [21]): -0.8557

Substance: LGrLLGIFEQNQDRKHR
- Fold change KO/WT (MCF7 cells; [7]): -0.4775
- CARM1 140-608/WT (MCF7 CARM1 KO cells; [2]): -0.3444
- KO/WT (MCF7 CARM1 KO cells; [3]): -0.4775

Substance: GMQHFPPGPGGPMPGPHGGPGGPVGPrLLGPPPPPR
- Fold change KO/WT (MCF7 cells; [7]): -1.283
- CARM1 140-608/WT (MCF7 CARM1 KO cells; [2]): -0.7184
- KO/WT (MCF7 CARM1 KO cells; [3]): -1.425

Substance: QLrYQQPGPGSSPSSFLLK
- Fold change KO/WT (MCF7 cells; [13]): -4.8874
- CARM1 140-608/WT (MCF7 CARM1 KO cells; [14]): -1.181
- KO/WT (MCF7 CARM1 KO cells; [15]): -5.114

Substance: YPLPPPSGrYNWN
- Fold change KO/WT (MCF7 cells; [8]): -1.371
- CARM1 140-608/WT (MCF7 CARM1 KO cells; [9]): -1.592
- KO/WT (MCF7 CARM1 KO cells; [10]): -1.5401

Substance: EIrYSLLPFANESGTSAAAEVNR
- Fold change KO/WT (MCF7 cells; [4]): -3.011
- CARM1 140-608/WT (MCF7 CARM1 KO cells; [5]): -1.601
- KO/WT (MCF7 CARM1 KO cells; [6]): -3.011

Substance: ATSVLPrYGPPCLFK
- Fold change KO/WT (MCF7 cells; [11]): -3.4878
- CARM1 140-608/WT (MCF7 CARM1 KO cells; [12]): -1.277
- KO/WT (MCF7 CARM1 KO cells; [12]): -3.4878

Substance: KPPNQSLPLQPFQLAFGHQVNrQVFrQGPPPPNPVAAFPPQK
- Fold change KO/WT (MCF7 cells; [18]): -3.229
- CARM1 140-608/WT (MCF7 CARM1 KO cells; [21]): -2.162
- KO/WT (MCF7 CARM1 KO cells; [21]): -3.229

Substance: VGSSNFrGGLGGGYGGASGMGGITAVTVNQSLLSPLVLEVDPNIQAVR
- Fold change KO/WT (MCF7 cells; [4]): -0.7814
- CARM1 140-608/WT (MCF7 CARM1 KO cells; [5]): -0.9286
- KO/WT (MCF7 CARM1 KO cells; [6]): -0.7814

Substance: GQPVGGLrFEGPHGQPVGGLrFDNPR
- Fold change KO/WT (MCF7 cells; [7]): -1.132
- CARM1 140-608/WT (MCF7 CARM1 KO cells; [2]): 0.02925
- KO/WT (MCF7 CARM1 KO cells; [3]): -0.8726

Substance: YCLTAPNYrLK
- Fold change KO/WT (MCF7 cells; [11]): -0.9585
- CARM1 140-608/WT (MCF7 CARM1 KO cells; [12]): -1.503
- KO/WT (MCF7 CARM1 KO cells; [12]): -1.727

Substance: LGRPIGALArGAIGGR
- Fold change KO/WT (MCF7 cells; [13]): 0.325
- CARM1 140-608/WT (MCF7 CARM1 KO cells; [21]): 0.09518
- KO/WT (MCF7 CARM1 KO cells; [21]): 1.211

Substance: LTVPrYSIPTGDPPPYPEIASQLAQGR
- Fold change KO/WT (MCF7 cells; [8]): -2.163
- CARM1 140-608/WT (MCF7 CARM1 KO cells; [9]): -0.6093
- KO/WT (MCF7 CARM1 KO cells; [10]): -2.766

Substance: rPFGISALIVGFDDDGISR
- Fold change KO/WT (MCF7 cells; [1]): -1.577
- CARM1 140-608/WT (MCF7 CARM1 KO cells; [2]): -0.5842
- KO/WT (MCF7 CARM1 KO cells; [3]): -1.577
